Laboratory results taken from PubChem BioAssay AID2060888 (Molecular Pharmacology Branch, DTP, NCI, 2025).

Test system: 695427-040-R-J1-PDC complex spheroid viability
Assay: Anticancer human tumor 695427-040-R-J1-PDC patient-derived colon adenocarcinoma cell line growth inhibition [RAS]
Conditions: for IC50: curve of first compound; for viability, T/C: stronger effect = lower value
In short: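 Multi-cell-type spheroids: tumor cells plus HUVEC endothelial cells and mesenchymal stem cells. RAS-pathway inhibitors were combined with targeted agents, each dosed in half-log steps down from clinical Cmax, or from 10 microM when Cmax was unknown.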

[1] = second compound 0.000949 µM, first compound 0.000949 µM
[2] = second compound 0.000949 µM, first compound 0.003 µM
[3] = second compound 0.000949 µM, first compound 0.00949 µM
[4] = second compound 0.000949 µM, first compound 0.03 µM
[5] = second compound 0.000949 µM, first compound 0.0949 µM
[6] = second compound 0.000949 µM, first compound 0.3 µM
[7] = second compound 0.003 µM, first compound 0.000949 µM
[8] = second compound 0.003 µM, first compound 0.003 µM
[9] = second compound 0.003 µM, first compound 0.00949 µM
[10] = second compound 0.003 µM, first compound 0.03 µM
[11] = second compound 0.003 µM, first compound 0.0949 µM
[12] = second compound 0.003 µM, first compound 0.3 µM
[13] = second compound 0.00949 µM, first compound 0.000949 µM
[14] = second compound 0.00949 µM, first compound 0.003 µM
[15] = second compound 0.00949 µM, first compound 0.00949 µM
[16] = second compound 0.00949 µM, first compound 0.03 µM
[17] = second compound 0.00949 µM, first compound 0.0949 µM
[18] = second compound 0.00949 µM, first compound 0.3 µM
[19] = second compound 0.03 µM, first compound 0.000949 µM
[20] = second compound 0.03 µM, first compound 0.003 µM
[21] = second compound 0.03 µM, first compound 0.00949 µM
[22] = second compound 0.03 µM, first compound 0.03 µM
[23] = second compound 0.03 µM, first compound 0.0949 µM
[24] = second compound 0.03 µM, first compound 0.3 µM
[25] = second compound 0.0949 µM, first compound 0.000949 µM
[26] = second compound 0.0949 µM, first compound 0.003 µM
[27] = second compound 0.0949 µM, first compound 0.00949 µM
[28] = second compound 0.0949 µM, first compound 0.03 µM
[29] = second compound 0.0949 µM, first compound 0.0949 µM
[30] = second compound 0.0949 µM, first compound 0.3 µM
[31] = second compound 0.3 µM, first compound 0.000949 µM
[32] = second compound 0.3 µM, first compound 0.003 µM
[33] = second compound 0.3 µM, first compound 0.00949 µM
[34] = second compound 0.3 µM, first compound 0.03 µM
[35] = second compound 0.3 µM, first compound 0.0949 µM
[36] = second compound 0.3 µM, first compound 0.3 µM
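Also: viability read after seven days of drug exposure.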
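For viability, T/C in this document: 100% = DMSO vehicle control viability.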

C=CC(=O)N1CCN(c2nc(OCC3CCCN3C)nc3c(F)c(-c4nc(N)cc(C)c4C(F)(F)F)c(Cl)cc23)C(C)C1 (stereo unspecified) + CCn1c(-c2cc(N3CCN(C)CC3)cnc2C(C)OC)c2c3cc(ccc31)-c1csc(n1)CC(NC(=O)C1CC1C)C(=O)N1CCCC(N1)C(=O)OCC(C)(C)C2
IC50 (second compound 0.000949 µM): > 1 µM
IC50 (second compound 0.003 µM): > 1 µM
IC50 (second compound 0.00949 µM): > 1 µM
IC50 (second compound 0.03 µM): > 1 µM
IC50 (second compound 0.0949 µM): < 0.00316 µM
IC50 (second compound 0.3 µM): < 0.00316 µM
viability, T/C (second compound 0.000949 µM, first compound 0.00316 µM): 91.6%
viability, T/C (second compound 0.000949 µM, first compound 0.01 µM): 115%
viability, T/C (second compound 0.000949 µM, first compound 0.0316 µM): 99.4%
viability, T/C (second compound 0.000949 µM, first compound 0.1 µM): 94.1%
viability, T/C (second compound 0.000949 µM, first compound 0.316 µM): 110%
viability, T/C (second compound 0.000949 µM, first compound 1 µM): 90%
viability, T/C (second compound 0.003 µM, first compound 0.00316 µM): 92.3%
viability, T/C (second compound 0.003 µM, first compound 0.01 µM): 99.9%
viability, T/C (second compound 0.003 µM, first compound 0.0316 µM): 85.7%
viability, T/C (second compound 0.003 µM, first compound 0.1 µM): 85%
viability, T/C (second compound 0.003 µM, first compound 0.316 µM): 98.9%
viability, T/C (second compound 0.003 µM, first compound 1 µM): 85.5%
viability, T/C (second compound 0.00949 µM, first compound 0.00316 µM): 94%
viability, T/C (second compound 0.00949 µM, first compound 0.01 µM): 69.2%
viability, T/C (second compound 0.00949 µM, first compound 0.0316 µM): 81.2%
viability, T/C (second compound 0.00949 µM, first compound 0.1 µM): 75.3%
viability, T/C (second compound 0.00949 µM, first compound 0.316 µM): 76.4%
viability, T/C (second compound 0.00949 µM, first compound 1 µM): 69.1%
viability, T/C (second compound 0.03 µM, first compound 0.00316 µM): 69.5%
viability, T/C (second compound 0.03 µM, first compound 0.01 µM): 63.7%
viability, T/C (second compound 0.03 µM, first compound 0.0316 µM): 57%
viability, T/C (second compound 0.03 µM, first compound 0.1 µM): 55.5%
viability, T/C (second compound 0.03 µM, first compound 0.316 µM): 56.3%
viability, T/C (second compound 0.03 µM, first compound 1 µM): 59%
viability, T/C (second compound 0.0949 µM, first compound 0.00316 µM): 52.3%
viability, T/C (second compound 0.0949 µM, first compound 0.01 µM): 47.7%
viability, T/C (second compound 0.0949 µM, first compound 0.0316 µM): 42.3%
viability, T/C (second compound 0.0949 µM, first compound 0.1 µM): 42.8%
viability, T/C (second compound 0.0949 µM, first compound 0.316 µM): 47.1%
viability, T/C (second compound 0.0949 µM, first compound 1 µM): 45.1%
viability, T/C (second compound 0.3 µM, first compound 0.00316 µM): 39.2%
viability, T/C (second compound 0.3 µM, first compound 0.01 µM): 34.7%
viability, T/C (second compound 0.3 µM, first compound 0.0316 µM): 42.7%
viability, T/C (second compound 0.3 µM, first compound 0.1 µM): 38%
viability, T/C (second compound 0.3 µM, first compound 0.316 µM): 36.8%
viability, T/C (second compound 0.3 µM, first compound 1 µM): 37.1%

CC1(C)CCC(Nc2ncc(C(F)(F)F)c(-c3c[nH]c4c(P(C)(C)=O)c(C#N)ccc34)n2)CN1 (stereo unspecified) + CCn1c(-c2cc(N3CCN(C)CC3)cnc2C(C)OC)c2c3cc(ccc31)-c1csc(n1)CC(NC(=O)C1CC1C)C(=O)N1CCCC(N1)C(=O)OCC(C)(C)C2
IC50 (second compound 0.000949 µM): > 0.3 µM
IC50 (second compound 0.003 µM): > 0.3 µM
IC50 (second compound 0.00949 µM): > 0.3 µM
IC50 (second compound 0.03 µM): > 0.3 µM
IC50 (second compound 0.0949 µM): < 0.000949 µM
IC50 (second compound 0.3 µM): < 0.000949 µM
viability, T/C [1]: 98%
viability, T/C [2]: 101%
viability, T/C [3]: 84%
viability, T/C [4]: 92.2%
viability, T/C [5]: 91.8%
viability, T/C [6]: 77.6%
viability, T/C [7]: 94.8%
viability, T/C [8]: 85.5%
viability, T/C [9]: 77.9%
viability, T/C [10]: 77.2%
viability, T/C [11]: 80.6%
viability, T/C [12]: 69.3%
viability, T/C [13]: 71.4%
viability, T/C [14]: 65.6%
viability, T/C [15]: 74.2%
viability, T/C [16]: 61.7%
viability, T/C [17]: 62.8%
viability, T/C [18]: 63.6%
viability, T/C [19]: 67.4%
viability, T/C [20]: 60.7%
viability, T/C [21]: 61%
viability, T/C [22]: 58.5%
viability, T/C [23]: 55.4%
viability, T/C [24]: 51.4%
viability, T/C [25]: 47.5%
viability, T/C [26]: 44.3%
viability, T/C [27]: 47.9%
viability, T/C [28]: 47.4%
viability, T/C [29]: 45.6%
viability, T/C [30]: 40.3%
viability, T/C [31]: 34.7%
viability, T/C [32]: 41.8%
viability, T/C [33]: 31.7%
viability, T/C [34]: 36.4%
viability, T/C [35]: 36.6%
viability, T/C [36]: 33.4%

CCc1c2c(nc3ccc(O)cc13)-c1cc3c(c(=O)n1C2)COC(=O)[C@]3(O)CC + CCn1c(-c2cc(N3CCN(C)CC3)cnc2C(C)OC)c2c3cc(ccc31)-c1csc(n1)CC(NC(=O)C1CC1C)C(=O)N1CCCC(N1)C(=O)OCC(C)(C)C2
IC50 (second compound 0.000949 µM): 0.107 µM
IC50 (second compound 0.003 µM): 0.0732 µM
IC50 (second compound 0.00949 µM): 0.0568 µM
IC50 (second compound 0.03 µM): 0.00769 µM
IC50 (second compound 0.0949 µM): < 0.000949 µM
IC50 (second compound 0.3 µM): < 0.000949 µM
viability, T/C [1]: 88.8%
viability, T/C [2]: 87%
viability, T/C [3]: 75.6%
viability, T/C [4]: 61.8%
viability, T/C [5]: 55.4%
viability, T/C [6]: 33.7%
viability, T/C [7]: 103%
viability, T/C [8]: 86.1%
viability, T/C [9]: 66%
viability, T/C [10]: 63.6%
viability, T/C [11]: 48%
viability, T/C [12]: 36.3%
viability, T/C [13]: 82.3%
viability, T/C [14]: 64%
viability, T/C [15]: 65%
viability, T/C [16]: 57.8%
viability, T/C [17]: 50%
viability, T/C [18]: 26.6%
viability, T/C [19]: 59.2%
viability, T/C [20]: 51.6%
viability, T/C [21]: 55.3%
viability, T/C [22]: 35.3%
viability, T/C [23]: 41.6%
viability, T/C [24]: 27.9%
viability, T/C [25]: 45.2%
viability, T/C [26]: 41.7%
viability, T/C [27]: 46.7%
viability, T/C [28]: 31.8%
viability, T/C [29]: 30.7%
viability, T/C [30]: 20.5%
viability, T/C [31]: 38.1%
viability, T/C [32]: 37.6%
viability, T/C [33]: 28.2%
viability, T/C [34]: 30.8%
viability, T/C [35]: 23.8%
viability, T/C [36]: 16.9%
